Results from patent US10807992B2, “Single enantiomer antiparasitic compounds” (priority 2017, dated 2020).
Read-outs that look alike come from different tables or passages of the source.

Test system: Aedes aegypti
Experiment: In vitro contact activity against adult mosquitoes (coated vial)
Protocol: Aedes aegypti (Louisiana Biologicals Inc., New Orleans, La.) eggs were allowed to hatch, close, and age between 3-5 days in an environmental chamber at 26° C., 80% humidity with light/dark cycles.
For mosquito assays, an aliquot from each compound stock was added to an acetone/triton solution to achieve the desired top doses for the study. Serial dilutions were conducted from the top dose (i.e. 50 ppm) to achieve the desired titration range for EC50 and EC90 determination. The final DMSO concentration in each test vial was 0.5%. A 459 μL aliquot of each compound formulation was transferred to a vial and vials were immediately placed on an unheated roller unit to allow for an even coating of the vial walls. The vials were loosely capped and allowed to dry for a minimum of four hours in a chemical fume hood.
For both contact and ingestion assays, five female Aedes aegypti adults were added to each vial or cage. The test vials for contact assays were held in an environmental chamber at 24° C., 80% humidity with light/dark cycles (12 hours each). The cages for mosquito ingestion assays were held in a temperature-controlled artificial feeding apparatus to allow continual access to organic bovine blood containing the desired concentration of compound. Fresh aliquots of compound-spiked bovine blood were provided daily for the duration of the study.
Mosquitoes showing no movement or mosquitoes that were knocked down were noted as dead. Results from trial 1 and trial 2 contact assays are shown in Tables 12 and 13, respectively and the results from trial 3 mosquito ingestion assay is shown in table 14.
For the mosquito contact and ingestion assays, each replicate contained 5 mosquitoes. For ease of calculation, the two replicates were added to equal a total of 10 mosquitoes.

With O=C(CC(F)(F)F)N1CC2(C1)OCc1cc(C3=NS[C@@](c4cc(Cl)c(F)c(Cl)c4)(C(F)(F)F)C3)ccc12 [C1 (S) enantiomer, (S)-1-[6-[5-(3,5-dichloro-4-fluoro-phenyl)-5-(trifluoromethyl)-4H-isothiazol-3-yl]spiro[1H-isobenzofuran-3,3′-azetidine]-1′-yl]-3,3,3-trifluoro-propan-1-one] the mortality at 0.049 µM (0.5 h, read-out: % Mortality R1 + R2, Trial 1, contact assay, dose 0.049 μM, 0.5 Hr) was 0%, the mortality at 0.2 µM (0.5 h, read-out: % Mortality R1 + R2, Trial 1, contact assay, dose 0.20 μM, 0.5 Hr) was 0% and the mortality at 0.78 µM (0.5 h, read-out: % Mortality R1 + R2, Trial 1, contact assay, dose 0.78 μM, 0.5 Hr) was 0%. For the same compound, the mortality at 3.125 µM (0.5 h, read-out: % Mortality R1 + R2, Trial 1, contact assay, dose 3.125 μM, 0.5 Hr) was 0%, the mortality at 12.5 µM (0.5 h, read-out: % Mortality R1 + R2, Trial 1, contact assay, dose 12.5 μM, 0.5 Hr) was 0% and the mortality at 50 µM (0.5 h, read-out: % Mortality R1 + R2, Trial 1, contact assay, dose 50 μM, 0.5 Hr) was 0%. The mortality at 0.049 µM (0.5 h, read-out: % Mortality R1 + R2, Trial 2, contact assay, dose 0.049 μM, 0.5 Hr) was 0%, the mortality at 0.2 µM (0.5 h, read-out: % Mortality R1 + R2, Trial 2, contact assay, dose 0.20 μM, 0.5 Hr) was 0% and the mortality at 0.78 µM (0.5 h, read-out: % Mortality R1 + R2, Trial 2, contact assay, dose 0.78 μM, 0.5 Hr) was 0%. It also gave a mortality at 3.125 µM (0.5 h, read-out: % Mortality R1 + R2, Trial 2, contact assay, dose 3.125 μM, 0.5 Hr) of 0%, a mortality at 12.5 µM (0.5 h, read-out: % Mortality R1 + R2, Trial 2, contact assay, dose 12.5 μM, 0.5 Hr) of 0% and a mortality at 50 µM (0.5 h, read-out: % Mortality R1 + R2, Trial 2, contact assay, dose 50 μM, 0.5 Hr) of 0%. For the same compound, the mortality at 0.049 µM (1 h, read-out: % Mortality R1 + R2, Trial 1, contact assay, dose 0.049 μM, 1 hr) was 0%, the mortality at 0.2 µM (1 h, read-out: % Mortality R1 + R2, Trial 1, contact assay, dose 0.20 μM, 1 hr) was 0% and the mortality at 0.78 µM (1 h, read-out: % Mortality R1 + R2, Trial 1, contact assay, dose 0.78 μM, 1 hr) was 0%. For the same compound, the mortality at 3.125 µM (1 h, read-out: % Mortality R1 + R2, Trial 1, contact assay, dose 3.125 μM, 1 hr) was 0%, the mortality at 12.5 µM (1 h, read-out: % Mortality R1 + R2, Trial 1, contact assay, dose 12.5 μM, 1 hr) was 0% and the mortality at 50 µM (1 h, read-out: % Mortality R1 + R2, Trial 1, contact assay, dose 50 μM, 1 hr) was 0%. It also gave a mortality at 0.049 µM (1 h, read-out: % Mortality R1 + R2, Trial 2, contact assay, dose 0.049 μM, 1 hr) of 0%, a mortality at 0.2 µM (1 h, read-out: % Mortality R1 + R2, Trial 2, contact assay, dose 0.20 μM, 1 hr) of 0% and a mortality at 0.78 µM (1 h, read-out: % Mortality R1 + R2, Trial 2, contact assay, dose 0.78 μM, 1 hr) of 0%. For the same compound, the mortality at 3.125 µM (1 h, read-out: % Mortality R1 + R2, Trial 2, contact assay, dose 3.125 μM, 1 hr) was 0%, the mortality at 12.5 µM (1 h, read-out: % Mortality R1 + R2, Trial 2, contact assay, dose 12.5 μM, 1 hr) was 0% and the mortality at 50 µM (1 h, read-out: % Mortality R1 + R2, Trial 2, contact assay, dose 50 μM, 1 hr) was 0%. It also gave a mortality at 0.049 µM (6 h, read-out: % Mortality R1 + R2, Trial 1, contact assay, dose 0.049 μM, 6 hr) of 0%, a mortality at 0.2 µM (6 h, read-out: % Mortality R1 + R2, Trial 1, contact assay, dose 0.20 μM, 6 hr) of 0% and a mortality at 0.78 µM (6 h, read-out: % Mortality R1 + R2, Trial 1, contact assay, dose 0.78 μM, 6 hr) of 0%. It also gave a mortality at 3.125 µM (6 h, read-out: % Mortality R1 + R2, Trial 1, contact assay, dose 3.125 μM, 6 hr) of 0%, a mortality at 12.5 µM (6 h, read-out: % Mortality R1 + R2, Trial 1, contact assay, dose 12.5 μM, 6 hr) of 30% and a mortality at 50 µM (6 h, read-out: % Mortality R1 + R2, Trial 1, contact assay, dose 50 μM, 6 hr) of 100%. The mortality at 0.049 µM (6 h, read-out: % Mortality R1 + R2, Trial 2, contact assay, dose 0.049 μM, 6 hr) was 0%, the mortality at 0.2 µM (6 h, read-out: % Mortality R1 + R2, Trial 2, contact assay, dose 0.20 μM, 6 hr) was 0% and the mortality at 0.78 µM (6 h, read-out: % Mortality R1 + R2, Trial 2, contact assay, dose 0.78 μM, 6 hr) was 0%. The mortality at 3.125 µM (6 h, read-out: % Mortality R1 + R2, Trial 2, contact assay, dose 3.125 μM, 6 hr) was 0%, the mortality at 12.5 µM (6 h, read-out: % Mortality R1 + R2, Trial 2, contact assay, dose 12.5 μM, 6 hr) was 10% and the mortality at 50 µM (6 h, read-out: % Mortality R1 + R2, Trial 2, contact assay, dose 50 μM, 6 hr) was 100%. It also gave a mortality at 0.049 µM (12 h, read-out: % Mortality R1 + R2, Trial 1, contact assay, dose 0.049 μM, 12 hr) of 0%, a mortality at 0.2 µM (12 h, read-out: % Mortality R1 + R2, Trial 1, contact assay, dose 0.20 μM, 12 hr) of 0% and a mortality at 0.78 µM (12 h, read-out: % Mortality R1 + R2, Trial 1, contact assay, dose 0.78 μM, 12 hr) of 0%. For the same compound, the mortality at 3.125 µM (12 h, read-out: % Mortality R1 + R2, Trial 1, contact assay, dose 3.125 μM, 12 hr) was 10%, the mortality at 12.5 µM (12 h, read-out: % Mortality R1 + R2, Trial 1, contact assay, dose 12.5 μM, 12 hr) was 70% and the mortality at 50 µM (12 h, read-out: % Mortality R1 + R2, Trial 1, contact assay, dose 50 μM, 12 hr) was 100%.
